# Test results: article PMC10998594, “Structural and mechanistic basis of the central energy-converting methyltransferase complex of methanogenesis” (Proceedings of the National Academy of Sciences of the …, 2024)
# Target: T1, MtrABCDEFG; Mtr(ABCDEFG)3; N5-methyl-tetrahydromethanopterin: coenzyme M methyltransferase core complex (Methanothermobacter marburgensis, UniProt P80183+P80185+P80186)
# T1 construct: gene mtrE; native purification from M. marburgensis membranes (DDM/LMNG); trimer of MtrABCDEFG protomers, 430 kDa; MtrH not visible; soluble MtrA domain disordered, only MtrA 178-238 seen; printed lengths MtrB 100, MtrC 267, MtrD 233, MtrE 295, MtrF 68, MtrG 86; with Tetrahydromethanopterin S-methyltransferase subunit A; Tetrahydromethanopterin S-methyltransferase subunit B; Tetrahydromethanopterin S-methyltransferase subunit F; Tetrahydromethanopterin S-methyltransferase subunit G
# Test: cryo-EM structure, […] A
# Format: binding
# Conditions: 2 mM CoM, pH 7, 80 mM NaCl; site at wall of MtrCDE cavity (MtrE R113, N38; MtrC N188); two partially occupied conformations; putative assignment
# T1 sequence (P80183 whole entry, looked up, the tested form may be a part): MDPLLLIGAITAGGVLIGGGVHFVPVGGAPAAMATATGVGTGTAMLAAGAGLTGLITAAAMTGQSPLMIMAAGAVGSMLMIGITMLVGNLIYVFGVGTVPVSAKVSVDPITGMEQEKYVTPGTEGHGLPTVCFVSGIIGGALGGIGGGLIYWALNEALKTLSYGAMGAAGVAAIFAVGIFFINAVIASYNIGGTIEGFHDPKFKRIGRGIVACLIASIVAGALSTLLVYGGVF
# T1 sequence (P80185 whole entry, looked up, the tested form may be a part): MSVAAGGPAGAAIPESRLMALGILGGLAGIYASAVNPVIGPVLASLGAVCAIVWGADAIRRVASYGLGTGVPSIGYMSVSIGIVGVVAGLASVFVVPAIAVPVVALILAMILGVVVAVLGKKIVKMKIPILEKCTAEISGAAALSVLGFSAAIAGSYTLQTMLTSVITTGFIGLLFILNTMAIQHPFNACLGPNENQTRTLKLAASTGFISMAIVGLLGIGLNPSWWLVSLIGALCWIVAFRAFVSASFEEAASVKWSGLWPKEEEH
# T1 sequence (P80186 whole entry, looked up, the tested form may be a part): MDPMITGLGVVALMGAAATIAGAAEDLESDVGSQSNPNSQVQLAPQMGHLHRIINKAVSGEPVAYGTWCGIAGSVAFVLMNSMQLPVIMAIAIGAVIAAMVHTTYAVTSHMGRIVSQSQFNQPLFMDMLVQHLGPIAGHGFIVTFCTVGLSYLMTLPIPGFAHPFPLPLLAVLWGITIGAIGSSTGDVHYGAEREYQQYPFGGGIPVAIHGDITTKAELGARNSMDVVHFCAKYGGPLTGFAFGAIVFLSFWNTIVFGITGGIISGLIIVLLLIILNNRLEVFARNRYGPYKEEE
structure (smiles),measurement,value
O=S(=O)(O)CCS [CoM],"cryo-EM structure, 2.39 A",revealed the CoM binding site at the wall of the MtrCDE cavity
